As usually defined, the IC50 is the concentration that inhibits the measured activity by half.

In this assay the test system is PI3K. As to the kind of experiment: Cellular testing of PI3K inhibitors: P-S473-PKB Luminex assay in PC3 cells. The class given is cell-based. On the procedure: Description of the Method for the Cellular Testing of PI3K Inhibitors
The cellular assay for determination of the P-S473-PKB level is carried out as a Luminex assay in 96-well format in PC3 cells.
PC3 cells are sown out with 20,000 cells per well in 100 μl medium (45% RPMI1460/45% Ham's F12/10% FCS) and incubated on the following day for 30 min with a serial dilution of the test substance (7 concentrations) under serum-free conditions. […] The lysates are incubated overnight at 4° C. with shaking with Luminex beads to which an anti-total PKB antibody is coupled. The detection is carried out on the following day by addition of a P-S473-PKB antibody and a species-specific PE-labelled secondary antibody. The detection of P-S473-PKB is carried out by measurement in a Luminex 100 instrument by determination of 100 events per cavity in a measurement time of 60 sec. […] The values of the preparations treated with test substance are calculated from this as percent of control, and IC50 values are determined by means of RS1.

The mark [1] stands for this setting: PI3K-dependent phosphorylation of PKB at Serin 473 in PC3 cells.

Structures are written as SMILES.

`COc1cc(Nc2nc3ccccc3nc2NS(=O)(=O)N(C)C)c(OCCCO)c(OC)c1` [Compound A104] returned a half-inhibitory concentration (IC50) (PI3 kinase inhibition, cell) of 1 to 100 nM.

For `COc1cc(Nc2nc3ccccc3nc2NS(=O)(=O)c2cccc(C(=O)N3CC(F)(F)C3)c2)c(OCCCO)c(OC)c1` [Compound A107], the IC50 (PI3 kinase inhibition, cell) is 100 to 10000 nM.

Compound `COc1cc(Nc2nc3ccccc3nc2NS(=O)(=O)c2cccnc2)c(OCCOCCO)c(OC)c1` [Compound A65] yielded a concentration for half-maximal inhibition (IC50) (PI3 kinase inhibition, cell) of 100 to 10000 nM.

Where the note is “PI3 kinase inhibition, cell”, `CCc1c(Nc2nc3ccccc3nc2NS(=O)(=O)c2ccc(C(=O)N(C)C)cc2)cc(OC)cc1OC` [Compound A13] had an IC50 of 100 to 10000 nM.

As to `COc1cc(Nc2nc3ccccc3nc2NS(=O)(=O)c2ccc(C(=O)N3CCC3)cc2)c(OCCCO)c(OC)c1` [Compound A102], the IC50 (PI3 kinase inhibition, cell) lay in the range of 1 to 100 nM.

Under “PI3 kinase inhibition, cell”, `COc1cc(Nc2nc3ccccc3nc2NS(=O)(=O)c2cccs2)c(OCCOCCO)c(OC)c1` [Compound A64] returned an IC50 of 1 to 100 nM.

Regarding `COc1cc(Nc2nc3ccccc3nc2NS(=O)(=O)c2ccn(C(F)(F)C(=O)N(C)C)n2)c(OCCC(C)O)c(OC)c1` (centres unmarked) [Compound A118, 2,2-difluoro-2-(3-{3-[2-(3-hydroxybutoxy)-3,5-dimethoxy-phenylamino]-quinoxalin-2-ylsulfamoyl}pyrazol-1-yl)-N,N-dimethylacetamide], the IC50 (PI3 kinase inhibition, cell) lay in the range of 100 to 10000 nM.

For `COc1cc(Nc2nc3ccccc3nc2NS(=O)(=O)C2CCS(=O)(=O)C2)c(OCCCO)c(OC)c1` (centres unmarked) [drawing 157], under setting [1], the concentration for half-maximal inhibition (IC50) is 53 nM.

Under “PI3 kinase inhibition, cell”, `COc1cc(Nc2nc3ccccc3nc2NS(=O)(=O)c2ccc(CN)cc2)c(OCCCO)c(OC)c1` [Compound A106, 4-aminomethyl-N-{3-[2-(3-hydroxypropoxy)-3,5-dimethoxy-phenylamino]-quinoxalin-2-yl}benzenesulfonamide] yielded a half-maximal inhibitory concentration (IC50) of 1 to 100 nM.

Take `COc1cc(Nc2nc3ccccc3nc2NS(=O)(=O)c2cn(C)cn2)c(OCCCO)c(OC)c1` [Compound A86]: where the note is “PI3 kinase inhibition, cell”, the IC50 fell in the range of 1 to 100 nM.

In the case of `COc1cc(Nc2nc3ccccc3nc2NS(=O)(=O)c2cn(C)cn2)c2c(c1)OCO2` [Compound A1], the IC50 (PI3 kinase inhibition, cell) lay in the range of 100 to 10000 nM.

In turn, `COc1cc(Nc2nc3ccccc3nc2NS(=O)(=O)c2ccc(C#N)cc2)c(OC)c(OC)c1` [Compound A91] gave an IC50 (PI3 kinase inhibition, cell) of 1 to 100 nM.

On to `COc1cc(Nc2nc3ccccc3nc2NS(=O)(=O)c2cn(C)cn2)c(OCC(O)CO)c(OC)c1` (centres unmarked) [Compound A75], for which the IC50 (PI3 kinase inhibition, cell) lay within 100 to 10000 nM.

In the case of `COc1ccc(CCCO)c(Nc2nc3ccccc3nc2NS(=O)(=O)c2cn(C)c(CN(C)C)n2)c1` [reference compound], the IC50 under setting [1] worked out at 1100 nM.

`COc1cc(Nc2nc3ccccc3nc2NS(=O)(=O)c2cn(C)cn2)c(CCCN2CCS(=O)(=O)CC2)c(OC)c1` [Compound A4]: the half-inhibitory concentration (IC50) (PI3 kinase inhibition, cell) was 100 to 10000 nM.

With `COc1cc(Nc2nc3ccccc3nc2NS(=O)(=O)c2ccc(NC(C)=O)cc2)c(OCCCO)c(OC)c1` [Compound A50], for the setting “PI3 kinase inhibition, cell”, the IC50 lay in the range of 1 to 100 nM.

With `COc1cc(Nc2nc3ccccc3nc2NS(=O)(=O)c2ccc(CN(C)C)cc2)c(OCCOCCO)c(OC)c1` [Compound A57, 4-Dimethylaminomethyl-N-(3-{2-[2-(2-hydroxy-ethoxy)ethoxy]-3,5-dimethoxyphenylamino}-quinoxalin-2-yl)benzenesulfonamide], the IC50 (PI3 kinase inhibition, cell) fell in the range of 100 to 10000 nM.

`COc1cc(C)c(OC)c(Nc2nc3ccccc3nc2NS(=O)(=O)c2cn(C)cn2)c1` [Compound A11] had a 50% inhibitory concentration (IC50) (PI3 kinase inhibition, cell) of 100 to 10000 nM.

Turning to `COc1cc(Nc2nc3ccccc3nc2NS(=O)(=O)c2ccc(C#N)cc2)c(OCCCO)c(OC)c1` [Compound A82], the concentration for half-maximal inhibition (IC50) (PI3 kinase inhibition, cell) was in the range of 1 to 100 nM.

Compound `COc1cc(Nc2nc3ccccc3nc2NS(=O)(=O)c2ccc(C(=O)N(C)C)cc2)c(OCCOCCO)c(OC)c1` [Compound A69] displayed an IC50 (PI3 kinase inhibition, cell) of 100 to 10000 nM.

With `CCCS(=O)(=O)Nc1nc2ccccc2nc1Nc1cc(OC)cc(OC)c1OCCOCCO` [Compound A56], the IC50 (PI3 kinase inhibition, cell) fell in the range of 100 to 10000 nM.

As to `COc1cc(Nc2nc3ccccc3nc2NS(=O)(=O)c2ccc(C#N)cc2)c(CCCN2CCS(=O)(=O)CC2)c(OC)c1` [Compound A3], the IC50 (PI3 kinase inhibition, cell) fell in the range of 1 to 100 nM.

For the compound `CCN(CC)Cc1nc(S(=O)(=O)Nc2nc3ccccc3nc2Nc2cc(OC)cc(OC)c2OCCC(C)O)cn1C` (centres unmarked) [Compound A123], for the setting “PI3 kinase inhibition, cell”, the 50% inhibitory concentration (IC50) lay within 100 to 10000 nM.

`COc1cc(Nc2nc3ccccc3nc2NS(=O)(=O)c2cccc(C(=O)NCC(F)(F)F)c2)c(OCCCO)c(OC)c1` [Compound A105] had a 50% inhibitory concentration (IC50) (PI3 kinase inhibition, cell) of 100 to 10000 nM.

`COc1cc(Nc2nc3ccccc3nc2NS(=O)(=O)c2ccc(C#N)cc2)c(CCCN(C)C)c(OC)c1` [Compound A2]: where the note is “PI3 kinase inhibition, cell”, the 50% inhibitory concentration (IC50) lay in the range of 100 to 10000 nM.

`COc1cc(Nc2nc3ccccc3nc2NS(=O)(=O)c2cn(C)c(CN(C)C)n2)c(OC)c(OC)c1` [Compound A31] had an IC50 (PI3 kinase inhibition, cell) of 100 to 10000 nM.

With `COc1cc(Nc2nc3ccccc3nc2NS(=O)(=O)c2cn(C)cn2)c(OCCO)c(OC)c1` [Compound A89], the IC50 (PI3 kinase inhibition, cell) lay in the range of 1 to 100 nM.

In the case of `COc1cc(Nc2nc3ccccc3nc2NS(C)(=O)=O)c(OCCC(C)O)c(OC)c1` (centres unmarked) [Compound A99], the concentration for half-maximal inhibition (IC50) (PI3 kinase inhibition, cell) was in the range of 1 to 100 nM.

`COc1cc(Nc2nc3ccccc3nc2NS(=O)(=O)c2cccc(CN3CCC3)c2)c(OCCCO)c(OC)c1` [Compound A116, 3-Azetidin-1-ylmethyl-N-{3-[2-(3-hydroxypropoxy)-3,5-dimethoxyphenylamino]-quinoxalin-2-yl}-benzenesulfonamide] registered a concentration for half-maximal inhibition (IC50) (PI3 kinase inhibition, cell) of 1 to 100 nM.

`COc1cc(Nc2nc3ccccc3nc2NS(=O)(=O)c2cn(C)cn2)c(OCCC(C)O)c(OC)c1` (centres unmarked) [Compound A42]: the 50% inhibitory concentration (IC50) (PI3 kinase inhibition, cell) was 1 to 100 nM.

As for `COc1cc(Nc2nc3ccccc3nc2NS(=O)(=O)c2cccnc2)c(OCCS(=O)(=O)CCO)c(OC)c1` [Compound A67], the 50% inhibitory concentration (IC50) (PI3 kinase inhibition, cell) lay in the range of 100 to 10000 nM.

For `COc1cc(Nc2nc3ccccc3nc2NS(=O)(=O)c2ccc(C#N)s2)c(OCCOCCO)c(OC)c1` [Compound A59], where the note is “PI3 kinase inhibition, cell”, the IC50 is 1 to 100 nM.

The compound `COc1cc(Nc2nc3ccccc3nc2NS(=O)(=O)c2ccc(C#N)cc2)c(OCCN2CCOCC2)c(OC)c1` [Compound A70] displayed an IC50 (PI3 kinase inhibition, cell) of 1 to 100 nM.

Where the note is “PI3 kinase inhibition, cell”, `COc1cc(Nc2nc3ccccc3nc2NS(=O)(=O)c2ccc(C(=O)N(C)C)cc2)c(OC)c(OC)c1` [Compound A90] came in with a 50% inhibitory concentration (IC50) of 100 to 10000 nM.

As for `COc1cc(Nc2nc3ccccc3nc2NS(=O)(=O)c2ccc(C(=O)N3CC(F)(F)C3)cc2)c(OCCCO)c(OC)c1` [Compound A98], the IC50 (PI3 kinase inhibition, cell) is 100 to 10000 nM.

`COc1cc(Nc2nc3ccccc3nc2NS(=O)(=O)c2ccc(F)cc2)c(OCCOCCO)c(OC)c1` [drawing 159] gave a half-inhibitory concentration (IC50) under setting [1] of 1.4 nM.

Compound `COc1cc(Nc2nc3ccccc3nc2NS(=O)(=O)c2cccnc2)c(OCCCO)c(OC)c1` [Compound A79] had a half-inhibitory concentration (IC50) (PI3 kinase inhibition, cell) of 100 to 10000 nM.

Where the note is “PI3 kinase inhibition, cell”, `COc1cc(C)c(OC)c(Nc2nc3ccccc3nc2NS(=O)(=O)c2ccc(C(=O)N(C)C)cc2)c1` [Compound A12] yielded an IC50 of 100 to 10000 nM.

In turn, `COc1cc(Nc2nc3ccccc3nc2NS(=O)(=O)c2ccc(C#N)s2)c(OCCS(C)(=O)=O)c(OC)c1` [Compound A41] displayed an IC50 (PI3 kinase inhibition, cell) of 1 to 100 nM.

Take `COc1cc(Nc2nc3ccccc3nc2NS(=O)(=O)c2cn(C)cn2)c(OC)c(OC)c1` [Compound A92]: the IC50 (PI3 kinase inhibition, cell) was in the range of 100 to 10000 nM.

In the case of `COc1ccc(CCCO)c(Nc2nc3ccccc3nc2NS(=O)(=O)C2CCS(=O)(=O)C2)c1` (centres unmarked) [reference compound], inhibition under setting [1] was half-maximal at 970 nM (IC50).

In the case of `CCc1cc(OC)cc(Nc2nc3ccccc3nc2NS(=O)(=O)c2ccc(C(=O)N(C)C)cc2)c1OC` [Compound A18], where the note is “PI3 kinase inhibition, cell”, the half-inhibitory concentration (IC50) was over 10000 nM.

Turning to `COc1cc(Nc2nc3ccccc3nc2NS(=O)(=O)c2ccc(CN3CCC3)cc2)c(OCCCO)c(OC)c1` [Compound A111, 4-Azetidin-1-ylmethyl-N-{3-[2-(3-hydroxypropoxy)-3,5-dimethoxyphenylamino]-quinoxalin-2-yl}-benzenesulfonamide], the half-maximal inhibitory concentration (IC50) (PI3 kinase inhibition, cell) fell in the range of 100 to 10000 nM.

`COc1cc(Nc2nc3ccccc3nc2NS(=O)(=O)c2cncs2)c(OCCCO)c(OC)c1` [Compound A22] showed an IC50 (PI3 kinase inhibition, cell) of 1 to 100 nM.

For the compound `COc1cc(Nc2nc3ccccc3nc2NS(=O)(=O)c2cn(C)cn2)cc(OC)c1` [reference compound], the IC50 under setting [1] was found to be 985 nM.

As for `COc1cc(Nc2nc3ccccc3nc2NS(=O)(=O)c2cn(C)c(CN(C)C)n2)c(CCCCO)c(OC)c1` [Compound A94], where the note is “PI3 kinase inhibition, cell”, the IC50 was in the range of 100 to 10000 nM.

`COc1cc(Nc2nc3ccccc3nc2NS(=O)(=O)c2cn(C)cn2)c(OCC[S+](C)[O-])c(OC)c1` (centres unmarked) [Compound A52] displayed a concentration for half-maximal inhibition (IC50) (PI3 kinase inhibition, cell) of 100 to 10000 nM.

Regarding `COc1cc2c(c(Nc3nc4ccccc4nc3NS(=O)(=O)c3cn(C)cn3)c1)OC(CO)C2` (centres unmarked) [Compound A5], the IC50 (PI3 kinase inhibition, cell) lay within 100 to 10000 nM.

`COc1cc(Nc2nc3ccccc3nc2NS(=O)(=O)c2cccc(CN(C)C)c2)c(OCCCO)c(OC)c1` [Compound A109, 3-Dimethylaminomethyl-N-{3-[2-(3-hydroxy-propoxy)-3,5-dimethoxyphenylamino]quinoxalin-2-yl}benzenesulfonamide] registered an IC50 (PI3 kinase inhibition, cell) of 1 to 100 nM.

Consider `COc1cc(Nc2nc3ccccc3nc2NS(=O)(=O)c2ccc(C(=O)NCC(F)F)cc2)c(OCCCO)c(OC)c1` [Compound A93], for which, where the note is “PI3 kinase inhibition, cell”, the IC50 is 100 to 10000 nM.

`COc1cc(Nc2nc3ccccc3nc2NS(=O)(=O)c2cccc(C(=O)N3CCC3)c2)c(OCCCO)c(OC)c1` [Compound A108]: where the note is “PI3 kinase inhibition, cell”, the half-maximal inhibitory concentration (IC50) is 100 to 10000 nM.

In turn, `COc1cc(Nc2nc3ccccc3nc2NS(=O)(=O)c2ccc(C#N)cc2)c(OCCOCCO)c(OC)c1` [Compound A80] yielded a half-maximal inhibitory concentration (IC50) (PI3 kinase inhibition, cell) of 1 to 100 nM.

For the compound `COc1cc(Nc2nc3ccccc3nc2NS(=O)(=O)c2ccc(C#N)cc2)c(OCCC(C)O)c(OC)c1` (centres unmarked) [Compound A45], the 50% inhibitory concentration (IC50) (PI3 kinase inhibition, cell) is 1 to 100 nM.
